Source: patent publication US10294202B2, “Pyrrolidinones as herbicides” (FMC Corporation, priority 2013, dated 2019)

How the values were obtained:
[1] = test system: sedge, umbrella; assay: Test C flooded paddy test; type: in vivo, Cyperus difformis; details: Flood
Summary of the method: (§1)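 Ratings reflect visual comparison with controls on a 0–100 scale, where 100 is complete control. Compound is dosed into standing paddy water 3 cm deep over 2-leaf-stage plants, kept in the greenhouse 13 to 15 days.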

[2] = test system: pigweed; assay: Test A pre-/postemergence herbicide test; type: in vivo, Amaranthus retroflexus; details: for Plant response rating, Pigweed: 0 to 100 scale
Summary of the method: (§2)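 Visual injury ratings, 0 = no effect, 100 = complete control, taken ~10 days after treatment against untreated greenhouse controls. Preemergence: directed soil spray onto seeded loam/sand pots. Postemergence: spray onto plants at one- to two-leaf stage, 2–10 cm tall.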

[3] = test system: galium; assay: Test A postemergence herbicide test; type: in vivo, Galium aparine; details: for Plant response rating, Galium: 125 g ai/ha, 0 to 100 scale; for Galium plant response rating (0 to 100 scale, 0 is no effect, 100 is complete control): 500 g ai/ha
Summary of the method: (§3)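 Potted in loam soil/sand blend; postemergence application at 1–2 leaf stage (2–10 cm). Greenhouse ~10 d. Visual injury vs untreated, 0–100 scale; 100 = complete control.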

[4] = test system: wheat; assay: Test A pre-/postemergence herbicide test; type: in vivo, Triticum aestivum; details: Postemergence; for Plant response rating, Wheat: 125 g ai/ha, 0 to 100 scale; for Wheat plant response rating (0 to 100 scale, 0 is no effect, 100 is complete control): 500 g ai/ha
Summary of the method: as §2

[5] = test system: ragweed; assay: Test A pre-/postemergence herbicide test; type: in vivo, Ambrosia elatior; details: for Plant response rating, Ragweed: 0 to 100 scale
Summary of the method: as §2

[6] = test system: ducksalad; assay: Test C flooded paddy test; type: in vivo, Heteranthera limosa; details: Flood
Summary of the method: as §1

[7] = test system: kochia; assay: Test A pre-/postemergence herbicide test; type: in vivo, Kochia scoparia; details: for Plant response rating, Kochia: 0 to 100 scale
Summary of the method: as §2

[8] = test system: corn; assay: Test A pre-/postemergence herbicide test; type: in vivo, Zea mays; details: Postemergence
Summary of the method: as §2

[9] = test system: rice; assay: Test C flooded paddy test; type: in vivo, Oryza sativa; details: Flood
Summary of the method: as §1

[10] = test system: barnyardgrass; assay: Test A pre-/postemergence herbicide test; type: in vivo, Echinochloa crus-galli
Summary of the method: as §2

[11] = test system: barnyardgrass; assay: Test C flooded paddy test; type: in vivo, Echinochloa crus-galli; details: Flood
Summary of the method: as §1

[12] = test system: ryegrass, Italian; assay: Test A pre-/postemergence herbicide test; type: in vivo, Lolium multiflorum; details: for Plant response rating, Ryegrass, Italian: 0 to 100 scale
Summary of the method: as §2

[13] = test system: giant foxtail; assay: Test A pre-/postemergence herbicide test; type: in vivo, Setaria faberii; details: for Plant response rating, Foxtail, Giant: 0 to 100 scale
Summary of the method: as §2

[14] = test system: blackgrass; assay: Test A postemergence herbicide test; type: in vivo, Alopecurus myosuroides
Summary of the method: as §3

[15] = 125 g ai/ha, scale of 0 to 100 where 0 is no effect and 100 is complete control, 13 to 15 days
[16] = Postemergence, 125 g ai/ha, 0 no effect, 100 complete control
[17] = Preemergence, 125 g ai/ha, visual rating on 0 to 100 scale (0 no effect, 100 complete control)
[18] = 0 no effect, 100 complete control
[19] = 125 g ai/ha, 0 to 100 scale, 0 no effect, 100 complete control
[20] = 500 g ai/ha, 0 to 100 scale (0 no effect, 100 complete control)
[21] = 250 g ai/ha, scale of 0 to 100 where 0 is no effect and 100 is complete control, 13 to 15 days
[22] = 125 g ai/ha, visual rating, 0 no effect, 100 complete control, approximately 10 days, preemergence
[23] = Postemergence, 125 g ai/ha, 0 is no effect, 100 is complete control
[24] = preemergence, 500 g ai/ha, 0 is no effect and 100 is complete control
[25] = 0 is no effect, 100 is complete control
[26] = 125 g ai/ha, 0 to 100 scale, 0 is no effect, 100 is complete control

SMILES: O=C1NCC(c2cccc(C(F)(F)F)c2)C1C(=O)Nc1nnc(C(F)(F)F)s1 (racemic) [Compound 112]
- Plant response rating, Sedge, Umbrella [1, 15]: 0
- Plant response rating, Sedge, Umbrella ([1]; 250 g ai/ha, scale 0 to 100): 0
- Plant response rating, Sedge, Umbrella ([1]; 500 g ai/ha, scale 0 to 100): 0
- Plant response rating, Sedge, Umbrella ([1]; 1000 g ai/ha, scale 0 to 100): 0
- Plant response rating, Pigweed [2, 16]: 0
- Pigweed plant response rating (0 to 100 scale, 0 is no effect, 100 is complete control) ([2]; Postemergence, 500 g ai/ha): 0
- Pigweed plant response rating [2, 17]: 0
- Plant response rating, Pigweed ([2]; preemergence, 500 g ai/ha): 0
- Plant response rating, Galium [3, 18]: 0
- Galium plant response rating (0 to 100 scale, 0 is no effect, 100 is complete control) [3]: 0
- Plant response rating, Wheat [4, 18]: 0
- Wheat plant response rating (0 to 100 scale, 0 is no effect, 100 is complete control) [4]: 0
- Plant response rating, Ragweed [5, 16]: 0
- Ragweed plant response rating (0 to 100 scale, 0 is no effect, 100 is complete control) ([5]; Postemergence, 500 g ai/ha): 0
- Ragweed plant response rating [5, 17]: 0
- Plant response rating, Ragweed ([5]; preemergence, 500 g ai/ha): 0
- Plant response rating, Ducksalad [6, 15]: 0
- Plant response rating, Ducksalad ([6]; 250 g ai/ha, scale 0 to 100): 0
- Plant response rating, Ducksalad ([6]; 500 g ai/ha, scale 0 to 100): 0
- Plant response rating, Ducksalad ([6]; 1000 g ai/ha, scale 0 to 100): 0
- Plant response rating, Kochia [7, 16]: 0
- Kochia plant response rating (0 to 100 scale, 0 is no effect, 100 is complete control) ([7]; Postemergence, 500 g ai/ha): 0
- Kochia plant response rating [7, 17]: 0
- Plant response rating, Kochia ([7]; preemergence, 500 g ai/ha): 0
- Plant response rating, Corn [8, 19]: 0
- Plant response rating, Corn [8, 20]: 0
- Plant response rating, Rice [9, 15]: 0
- Plant response rating, Rice ([9]; 250 g ai/ha, scale 0 to 100): 0
- Plant response rating, Rice ([9]; 500 g ai/ha, scale 0 to 100): 0
- Plant response rating, Rice ([9]; 1000 g ai/ha, scale 0 to 100): 0
- Plant response rating, Barnyardgrass ([10]; Postemergence, 125 g ai/ha, 0 to 100 scale, 0 no effect, 100 complete control): 0
- Plant response rating, Barnyardgrass ([10]; Postemergence, 500 g ai/ha, 0 to 100 scale (0 no effect, 100 complete control)): 0
- Barnyardgrass plant response rating [10, 17]: 0
- Plant response rating, Barnyardgrass ([10]; preemergence, 500 g ai/ha, 0 to 100 scale (0 no effect, 100 complete control)): 0
- Plant response rating, Barnyardgrass [11, 15]: 0
- Plant response rating, Barnyardgrass ([11]; 250 g ai/ha, scale 0 to 100): 0
- Plant response rating, Barnyardgrass ([11]; 500 g ai/ha, scale 0 to 100): 0
- Plant response rating, Barnyardgrass ([11]; 1000 g ai/ha, scale 0 to 100): 0
- Plant response rating, Ryegrass, Italian [12, 16]: 0
- Ryegrass, Italian plant response rating (0 to 100 scale, 0 is no effect, 100 is complete control) ([12]; Postemergence, 500 g ai/ha): 0
- Ryegrass, Italian plant response rating [12, 17]: 0
- Plant response rating, Ryegrass, Italian ([12]; preemergence, 500 g ai/ha): 0
- Plant response rating, Foxtail, Giant [13, 16]: 0
- Foxtail, Giant plant response rating (0 to 100 scale, 0 is no effect, 100 is complete control) ([13]; Postemergence, 500 g ai/ha): 0
- Foxtail, Giant plant response rating [13, 17]: 0
- Plant response rating, Foxtail, Giant ([13]; preemergence, 500 g ai/ha): 0
- Plant response rating, Blackgrass [14, 19]: 0
- Plant response rating, Blackgrass [14, 20]: 0

SMILES: O=C1NCC(c2cccc(C(F)F)c2)C1C(=O)Nc1ccccc1C(F)(F)F (racemic) [Compound 212]
- Plant response rating, Sedge, Umbrella [1, 15]: 0
- Plant response rating, Sedge, Umbrella [1, 21]: 0
- Plant response rating, Sedge, Umbrella ([1]; 500 g ai/ha, scale 0 to 100): 0
- Plant response rating, Sedge, Umbrella ([1]; 1000 g ai/ha, scale 0 to 100): 0
- Plant response rating, Pigweed [2, 22]: 0
- Plant response rating, Pigweed [2, 23]: 0
- Pigweed plant response rating (0 to 100 scale, 0 is no effect, 100 is complete control) ([2]; Postemergence, 500 g ai/ha): 0
- Plant response rating, Pigweed [2, 24]: 0
- Plant response rating, Galium [3, 25]: 50
- Galium plant response rating (0 to 100 scale, 0 is no effect, 100 is complete control) [3]: 60
- Plant response rating, Wheat [4, 25]: 0
- Wheat plant response rating (0 to 100 scale, 0 is no effect, 100 is complete control) [4]: 70
- Plant response rating, Ragweed [5, 22]: 0
- Plant response rating, Ragweed [5, 23]: 0
- Ragweed plant response rating (0 to 100 scale, 0 is no effect, 100 is complete control) ([5]; Postemergence, 500 g ai/ha): 20
- Plant response rating, Ragweed [5, 24]: 50
- Plant response rating, Ducksalad [6, 15]: 0
- Plant response rating, Ducksalad [6, 21]: 70
- Plant response rating, Ducksalad ([6]; 500 g ai/ha, scale 0 to 100): 75
- Plant response rating, Ducksalad ([6]; 1000 g ai/ha, scale 0 to 100): 100
- Plant response rating, Kochia [7, 22]: 0
- Plant response rating, Kochia [7, 23]: 0
- Kochia plant response rating (0 to 100 scale, 0 is no effect, 100 is complete control) ([7]; Postemergence, 500 g ai/ha): 20
- Plant response rating, Kochia [7, 24]: 20
- Plant response rating, Corn [8, 26]: 0
- Corn plant response rating (0 to 100 scale, 0 is no effect, 100 is complete control) ([8]; 500 g ai/ha): 50
- Plant response rating, Rice [9, 15]: 0
- Plant response rating, Rice [9, 21]: 0
- Plant response rating, Rice ([9]; 500 g ai/ha, scale 0 to 100): 0
- Plant response rating, Rice ([9]; 1000 g ai/ha, scale 0 to 100): 0
- Plant response rating, Barnyardgrass ([10]; 125 g ai/ha, visual rating, 0 to 100 scale, 0 no effect, 100 complete control, approximately 10 days, preemergence): 60
- Plant response rating, Barnyardgrass ([10]; Postemergence, 125 g ai/ha, 0 to 100 scale, 0 is no effect, 100 is complete control): 60
- Barnyardgrass plant response rating (0 to 100 scale, 0 is no effect, 100 is complete control) ([10]; Postemergence, 500 g ai/ha): 90
- Plant response rating, Barnyardgrass ([10]; preemergence, 500 g ai/ha, 0 to 100 scale, 0 is no effect and 100 is complete control): 90
- Plant response rating, Barnyardgrass [11, 15]: 0
- Plant response rating, Barnyardgrass [11, 21]: 15
- Plant response rating, Barnyardgrass ([11]; 500 g ai/ha, scale 0 to 100): 40
- Plant response rating, Barnyardgrass ([11]; 1000 g ai/ha, scale 0 to 100): 65
- Plant response rating, Ryegrass, Italian [12, 22]: 0
- Plant response rating, Ryegrass, Italian [12, 23]: 0
- Ryegrass, Italian plant response rating (0 to 100 scale, 0 is no effect, 100 is complete control) ([12]; Postemergence, 500 g ai/ha): 0
- Plant response rating, Ryegrass, Italian [12, 24]: 30
- Plant response rating, Foxtail, Giant [13, 22]: 70
- Plant response rating, Foxtail, Giant [13, 23]: 60
- Foxtail, Giant plant response rating (0 to 100 scale, 0 is no effect, 100 is complete control) ([13]; Postemergence, 500 g ai/ha): 90
- Plant response rating, Foxtail, Giant [13, 24]: 90
- Plant response rating, Blackgrass [14, 26]: 40
- Blackgrass plant response rating (0 to 100 scale, 0 is no effect, 100 is complete control) ([14]; 500 g ai/ha): 60
